Data published in US20120196751A1, “ANTHRAQUINONE CONTAINING PREPARATIONS/LIGNIN FORMULATIONS” (MARRONE BIO INNOVATIONS, INC., priority 2011, published 2012).

Test system: Phytophthora capsici
Assay: Efficacy of WSP and WDG in controlling Phytophthora capsici leaf blight on tomato plants (Example VI)
Assay type: in vivo
Conditions: 1.24 g/L; tomato cv Roma; rated 7 days post inoculation
Procedure: Reynoutria sachalinensis extract was formulated as WSP and as WDG. Both formulations were evaluated for their efficacy in controlling Phytophthora leaf blight on tomato. The cv “Roma” was planted in greenhouse till two true leaf stage. The isolate of P. capsici was grown on lima bean media (150 g lima bean was autoclaved in 500 ml water at 121° C. for 0.5 h and filtered through two layers of cheese cloth to remove seed coats. 20 g of agar was added to the filtrate and increase the volume to 1000 ml. The media was autoclaved at 121° C. for 15 min) for 7 days and the sporangia were washed off with sterile water. The sporangia suspension was incubated at room temperature (about 25° C.) for 1-2 h to release zoospores. The suspension was adjusted to 1.0×10^5 spores/ml. There were three single plant replications per treatments. For each treatment, 3 ml treatment/plant was applied with hand held sprayer. After the treatments dried up in a container for incubation, 10 ml of spore suspension was applied uniformly onto all the plants. The container was sealed to maintain high moisture and the plants were incubated at 25° C. in darkness for 3 days. Disease was rated 7 days post inoculation.

SMILES: COCC(=O)N(c1c(C)cccc1C)[C@H](C)C(=O)OC [mefenoxam (Ridomil), mefenoxam]
- % Control: 95.9%
- Severity (%, mean): 2.3%
